Data published in the supplement of paper PMC13380429.

Tests used:
Details in all cases: 72 h
HepG2 [1] = assay: relative viability EC50 (midpoint between 100% and the lowest measured viability); higher = less toxic
Vero E6 [2] = assay: as above
U2OS [3] = assay: as above
Calu-3 [4] = assay: as above
Caco-2 [5] = assay: as above
HepG2 [6] = assay: cell viability relative to DMSO; higher = less toxic
Vero E6 [7] = assay: as above
U2OS [8] = assay: as above
Calu-3 [9] = assay: as above
Caco-2 [10] = assay: as above
HepG2 [11] = assay: drug sensitivity score (DSS) for viability; higher = more toxic; extreme values may be limits of the assay
Vero E6 [12] = assay: as above
U2OS [13] = assay: as above
Calu-3 [14] = assay: as above
Caco-2 [15] = assay: as above

Row | Compound | relative viability EC50 (HepG2 [1]) [µM] | relative viability EC50 (Vero E6 [2]) [µM] | relative viability EC50 (U2OS [3]) [µM] | relative viability EC50 (Calu-3 [4]) [µM] | relative viability EC50 (Caco-2 [5]) [µM] | cell viability (HepG2 [6]; 1 nM) [%] | cell viability (HepG2 [6]; 10 nM) [%] | cell viability (HepG2 [6]; 100 nM) [%] | cell viability (HepG2 [6]; 1000 nM) [%] | cell viability (HepG2 [6]; 10000 nM) [%] | cell viability (Vero E6 [7]; 1 nM) [%] | cell viability (Vero E6 [7]; 10 nM) [%] | cell viability (Vero E6 [7]; 100 nM) [%] | cell viability (Vero E6 [7]; 1000 nM) [%] | cell viability (Vero E6 [7]; 10000 nM) [%] | cell viability (U2OS [8]; 1 nM) [%] | cell viability (U2OS [8]; 10 nM) [%] | cell viability (U2OS [8]; 100 nM) [%] | cell viability (U2OS [8]; 1000 nM) [%] | cell viability (U2OS [8]; 10000 nM) [%] | cell viability (Calu-3 [9]; 1 nM) [%] | cell viability (Calu-3 [9]; 10 nM) [%] | cell viability (Calu-3 [9]; 100 nM) [%] | cell viability (Calu-3 [9]; 1000 nM) [%] | cell viability (Calu-3 [9]; 10000 nM) [%] | cell viability (Caco-2 [10]; 1 nM) [%] | cell viability (Caco-2 [10]; 10 nM) [%] | cell viability (Caco-2 [10]; 100 nM) [%] | cell viability (Caco-2 [10]; 1000 nM) [%] | cell viability (Caco-2 [10]; 10000 nM) [%] | drug sensitivity score (HepG2 [11]) | drug sensitivity score (Vero E6 [12]) | drug sensitivity score (U2OS [13]) | drug sensitivity score (Calu-3 [14]) | drug sensitivity score (Caco-2 [15])
1 | COc1cc(C#N)ccc1S(=O)(=O)Nc1ccc2c(c1)cc(C)c(=O)n2C [NI-57] | > 10 | > 10 | > 10 | > 10 | > 10 | 106 | 114 | 102 | 94.1 | 85.3 | 98.7 | 103 | 99.6 | 95.7 | 96 | 101 | 98.2 | 101 | 98.5 | 98.9 | 98.7 | 110 | 101 | 101 | 104 | 99.1 | 97.4 | 94.8 | 91.1 | 83.5 | 0.7 | 0 | 0 | 0 | 0.6
2 | O=C(Nc1cc(C(F)(F)F)cc(C(F)(F)F)c1)Nc1c(Br)cc(Br)cc1-c1nnn[nH]1 [NS-5806] | > 10 | > 10 | > 10 | > 10 | > 10 | 107 | 95.3 | 106 | 96.6 | 108 | 98.8 | 99.2 | 105 | 102 | 102 | 98.6 | 103 | 94.6 | 105 | 98.9 | 94.2 | 95.4 | 95.3 | 98.2 | 87.9 | 93.7 | 97.8 | 97.1 | 98.2 | 91.7 | 0 | 0 | 0 | 0 | 0
3 | FC(F)(F)c1ccc(CNc2ccc(Cc3c[nH]c4ncccc34)cn2)cc1 [PLX647] | > 10 | > 10 | > 10 | > 10 | > 10 | 100 | 97.6 | 97.4 | 101 | 86.9 | 95.7 | 98.8 | 96.7 | 98.5 | 96.8 | 104 | 97.6 | 101 | 97.7 | 96.4 | 102 | 96.4 | 105 | 93.9 | 94.7 | 96 | 102 | 94.7 | 94.2 | 91.3 | 0.1 | 0 | 0 | 0 | 0
4 | COc1cc(Br)c(Nc2nc(-c3c(C)nc4ncccn34)cs2)c(Br)c1 [PTC-209] | 1.3 | 0.633 | 0.986 | 1.44 | 1.5 | 97.1 | 97.5 | 100 | 71.3 | 16.1 | 99.3 | 99.3 | 95.7 | 43.1 | 15.7 | 97.7 | 101 | 98.8 | 55.3 | 11.8 | 109 | 102 | 98.9 | 83.2 | 41.2 | 95.4 | 91.5 | 96.1 | 77.8 | 16.7 | 8.7 | 11.7 | 10.4 | 5.7 | 8
5 | O=S(=O)(c1ccccc1F)N1CCOc2c(N3CCNCC3)cccc21 [R-1485] | > 10 | > 10 | > 10 | > 10 | > 10 | 102 | 101 | 101 | 93.6 | 96.7 | 105 | 105 | 99.2 | 97.3 | 108 | 96.2 | 96.5 | 93.6 | 97.6 | 92.8 | 96.5 | 100 | 98.8 | 100 | 90.8 | 89.3 | 98.6 | 93 | 96.3 | 95.6 | 0 | 0 | 0 | 0 | 0
6 | Cc1nn(-c2ccccc2)c(C)c1/C=N/N1CCN(Cc2ccccc2)CC1 [SANT-1] | > 10 | > 10 | > 10 | > 10 | > 10 | 87.1 | 92.3 | 87 | 99.7 | 74.1 | 98.1 | 99.7 | 94.6 | 102 | 106 | 105 | 98.3 | 102 | 99.5 | 102 | 98.6 | 93.8 | 93.1 | 81.7 | 94.3 | 105 | 102 | 99.2 | 94 | 104 | 0 | 0 | 0 | 0.2 | 0
